Values joined by “and” are separate entries in the source; they are usually repeats but may differ in a detail not shown here. Equal values may be shown once. Toxic doses and inconclusive results are not listed.
Tested on: P388 leukemia ip, CD2F1 mice, survival T/C
Assay: NCI In Vivo Anticancer Drug Screen. Data for tumor model P388 Leukemia (intraperitoneal) in CD2F1 (CDF1) mice
Details: endpoint: median survival time, higher = longer survival
Method in brief: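 Mice carrying the transplanted tumor received test compound or vehicle. Survival was recorded in each group, and the value is the treated-group measurement divided by that of the vehicle-treated control group.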

[1] = dose: 50.0 mg/kg/injection, schedule: Q01DX005 (ip), vehicle: saline
[2] = dose: 100.0 mg/kg/injection, schedule: Q01DX005 (ip), vehicle: saline
[3] = dose: 200.0 mg/kg/injection, schedule: Q01DX005 (ip), vehicle: saline
[4] = dose: 100.0 mg/kg/injection, schedule: Q01DX009 (ip), vehicle: saline with Tween-80

`COC(CCCNCCCC(OC)OC)OC` was tested, and the T/C [1] was 102 % of control, the T/C [2] was 103 % of control and the T/C [3] was 103 % of control.
For `Nc1n[nH]c(N)n1`, the T/C [4] was 109 % of control and the T/C (dose: 800.0 mg/kg/injection, schedule: Q01DX009 (ip), vehicle: saline with Tween-80) was 163 % of control.
`N#CN=[N+]([O-])c1ccc([N+](=O)[O-])cc1` was tested, and the T/C (dose: 1.56 mg/kg/injection, schedule: Q01DX001 (ip), vehicle: Klucel (hydroxypropylcellulose) (HPC)) was 101 % of control, the T/C (dose: 3.12 mg/kg/injection, schedule: Q01DX001 (ip), vehicle: Klucel (hydroxypropylcellulose) (HPC)) was 99 % of control and the T/C (dose: 6.25 mg/kg/injection, schedule: Q01DX001 (ip), vehicle: Klucel (hydroxypropylcellulose) (HPC)) was 110 % of control. For the same compound, the T/C (dose: 6.25 mg/kg/injection, schedule: Q04DX003 (ip), vehicle: Klucel (hydroxypropylcellulose) (HPC)) was 101 % of control.
In the case of `CCOc1ccc2nc3cc(N=Nc4ccc(N)nc4N)ccc3c(N)c2c1`, the T/C (dose: 12.5 mg/kg/injection, schedule: Q01DX005 (ip), vehicle: saline with Tween-80) is reported as 106 % of control, the T/C (dose: 25.0 mg/kg/injection, schedule: Q01DX005 (ip), vehicle: saline with Tween-80) is reported as 113 % of control and the T/C (dose: 50.0 mg/kg/injection, schedule: Q01DX005 (ip), vehicle: saline with Tween-80) is reported as 104 % of control and 105 % of control.
For `COc1ccc(C(CC(=O)c2ccccc2)[Se]c2ccccc2)cc1` (configuration not stated), the T/C (dose: 25.0 mg/kg/injection, schedule: Q01DX009 (ip), vehicle: Klucel (hydroxypropylcellulose) (HPC)) was 105 % of control, the T/C (dose: 50.0 mg/kg/injection, schedule: Q01DX009 (ip), vehicle: Klucel (hydroxypropylcellulose) (HPC)) was 106 % of control and the T/C (dose: 100.0 mg/kg/injection, schedule: Q01DX009 (ip), vehicle: Klucel (hydroxypropylcellulose) (HPC)) was 105 % of control.
With `CC1=C(N(C)C)C(=O)N(c2ccccc2)CN1C` the T/C (dose: 3.75 mg/kg/injection, schedule: Q01DX005 (ip), vehicle: saline with Tween-80) was 111 % of control, the T/C (dose: 7.5 mg/kg/injection, schedule: Q01DX005 (ip), vehicle: saline with Tween-80) was 102 % of control and the T/C (dose: 15.0 mg/kg/injection, schedule: Q01DX005 (ip), vehicle: saline with Tween-80) was 101 % of control and 103 % of control.
With `COCCNCCN1CCN(CCCN2c3ccccc3Sc3ccc(C(F)(F)F)cc32)CC1` the T/C (dose: 1.56 mg/kg/injection, schedule: Q01DX009 (ip), vehicle: saline) was 104 % of control, the T/C (dose: 3.12 mg/kg/injection, schedule: Q01DX009 (ip), vehicle: saline) was 100 % of control and the T/C (dose: 6.25 mg/kg/injection, schedule: Q01DX009 (ip), vehicle: saline) was 107 % of control.
In the case of `CC(O)C(NC(=O)OC(C)(C)C)C(=O)ON1C(=O)CCC1=O` (configuration not stated), the T/C (dose: 50.0 mg/kg/injection, schedule: Q01DX009 (ip), vehicle: saline with Tween-80) is reported as 101 % of control, the T/C [4] is reported as 101 % of control and the T/C (dose: 200.0 mg/kg/injection, schedule: Q01DX009 (ip), vehicle: saline with Tween-80) is reported as 101 % of control.
For `O=C(Nc1ccc(C2=NCCN2)cc1)c1cc2cc(C3=NCCN3)ccc2o1`, the T/C (dose: 12.5 mg/kg/injection, schedule: Q04DX003 (ip), vehicle: suspension in saline) was 100 % of control, the T/C (dose: 25.0 mg/kg/injection, schedule: Q04DX003 (ip), vehicle: suspension in saline) was 102 % of control and the T/C (dose: 50.0 mg/kg/injection, schedule: Q04DX003 (ip), vehicle: suspension in saline) was 100 % of control.
With `CCOC(=O)N1C=CC(c2ccccc2)=CC2ON=C(c3c(C)cc(C)cc3C)N21` (configuration not stated) the T/C (dose: 50.0 mg/kg/injection, schedule: Q01DX009 (ip), vehicle: saline) was 106 % of control, the T/C (dose: 100.0 mg/kg/injection, schedule: Q01DX009 (ip), vehicle: saline) was 108 % of control and the T/C (dose: 200.0 mg/kg/injection, schedule: Q01DX009 (ip), vehicle: saline) was 99 % of control.
`CN1CCN(CCCNN)CC1` was tested, and the T/C [1] was 93 % of control, the T/C [2] was 101 % of control and the T/C [3] was 101 % of control.
For `C=C1C(=O)OC2C=CCC12` (configuration not stated), the T/C (dose: 3.13 mg/kg/injection, schedule: Q01DX009 (ip), vehicle: distilled water + Tween-80) was 99 % of control, the T/C (dose: 6.25 mg/kg/injection, schedule: Q01DX009 (ip), vehicle: distilled water + Tween-80) was 99 % of control and the T/C (dose: 12.5 mg/kg/injection, schedule: Q01DX009 (ip), vehicle: distilled water + Tween-80) was 100 % of control. For the same compound, the T/C (dose: 25.0 mg/kg/injection, schedule: Q01DX009 (ip), vehicle: distilled water + Tween-80) was 107 % of control and the T/C (dose: 50.0 mg/kg/injection, schedule: Q01DX009 (ip), vehicle: distilled water + Tween-80) was 107 % of control.
`NC(CCC(=O)O)C(=O)Nc1ccc(N(CCCl)CCCl)cc1` (configuration not stated) was tested, and the T/C (dose: 1.56 mg/kg/injection, schedule: Q01DX009 (ip), vehicle: saline with Tween-80) was 173 % of control, the T/C (dose: 3.12 mg/kg/injection, schedule: Q01DX009 (ip), vehicle: saline with Tween-80) was 175 % of control and the T/C (dose: 6.25 mg/kg/injection, schedule: Q01DX009 (ip), vehicle: saline with Tween-80) was 230 % of control. For the same compound, the T/C (dose: 12.5 mg/kg/injection, schedule: Q01DX009 (ip), vehicle: saline with Tween-80) was 92 % of control.
